Test systems include MDA-N; PC-3; DU-145; BT-549; LXFL 529; XF498; Hs-578T; RXF 631.
Common to all, as to assay: growth of human tumour cells (NCI), 48 h

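Assay format: 96-well plates, 48-hour exposure. The concentration for 50% growth inhibition is given as GI50.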 Calls of active or inactive are those of the source. No stated cut-off is given here; in the data, active = GI50 up to about 1.1 µM and inactive = higher.

Take `O=c1[nH]nc(NCc2ccccc2)c2nnn(Cc3ccccc3)c12`: the GI50 in the test with MDA-N, in the test with PC-3, in the test on DU-145 and in the test with BT-549 was > 100 µM (inactive) throughout.
As for `CC(SC1=CC(=O)c2c(Cl)ccc(O)c2C1=O)C(=O)O` (stereo not drawn), the GI50 in the test on LXFL 529 was 16 µM (inactive); with XF498 it was 19.9 µM (inactive).
With `NC(CCOCCP(=O)(O)O)C(=O)O` (stereo not drawn), the GI50 in the test with MDA-N, in the test on Hs-578T, in the test with PC-3, in the test on DU-145 and with BT-549 was > 100 µM (inactive) in each case.
Take `Cc1n[nH]c(N)c1C(N)=O`: the GI50 in the test on LXFL 529 and with XF498 was > 100 µM (inactive) throughout.
Consider `CC1C(=O)OC2CC[N+]3(CC(=O)c4ccc(Br)cc4)CC=C(COC(=O)C(C)(O)C1(C)O)C23` (stereo not drawn), for which, in the test with XF498, the GI50 is 259 µM (inactive).
In the case of `Nc1nc(=O)[nH][nH]1`, the GI50 in the test with XF498 was > 100 µM (inactive).
`C[Si](C)(OCCS(=O)(=O)O)C1(Cc2cccc3ccccc23)S(=O)(=O)OCCOS1(=O)=O`: the GI50 was 17.8 µM (inactive) in the test on MDA-N; 33.2 µM (inactive) in the test on Hs-578T; 19 µM (inactive) with PC-3; 19.6 µM (inactive) in the test on DU-145; 18.5 µM (inactive) with BT-549.
As for `OC[C@H]1NC[C@@H](O)[C@@H](O)[C@H]1O`, the GI50 is > 100 µM (inactive) in the test with MDA-N; > 100 µM (inactive) in the test with Hs-578T; > 100 µM (inactive) with PC-3; > 10 µM (inactive) with DU-145; > 100 µM (inactive) in the test on BT-549.
As for `N=S(=O)(c1ccccc1)c1ccccc1`, the GI50 in the test on LXFL 529 was > 100 µM (inactive).
Regarding `COc1ccc(C2C(C(=O)O)=C(CO)Oc3cc4c(cc32)OCO4)cc1` (stereo not drawn), the GI50 with XF498 and with RXF 631 was > 100 µM (inactive) throughout.

Source of the values: ChEMBL document CHEMBL1201862, “PubChem BioAssay data set” (2004).
